From patent publication US20070010671A1, “Novel quinazoline derivatives and methods of treatment related to the use thereof” (priority 2003, published 2007)

These compounds were tested against MCH receptor (Homo sapiens, UniProt Q99705) (assay: High throughput functional screening FLIPR/FDSS6000: inhibition of MCH-evoked intracellular Ca2+ changes). Conditions: class by percent of control at 10^-7 M or IC50.
Format: cell-based
Procedure, shortened: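 Constitutively active non-endogenous MCH-R cells; Fluo4-AM 4 μM, 2.5 mM probenecid, 1 hr, 37° C; cpd 3 min, 37° C; MCH 50 nM (antagonist mode); kinetic Ca2+ read Ex488/Em530, 290 s.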

Question: With `CC(C)c1ccccc1NC(=S)NC[C@H]1CC[C@@H](Nc2nc(N(C)C)c3ccccc3n2)CC1` [compound 680, N-[(cis-4-{[4-(dimethylamino)quinazolin-2-yl]amino}cyclohexyl)methyl]-N′-(2-isopropylphenyl)thiourea] as the compound, how does the class read?
Answer: 2 (Class 2: The value of percent of control at 10^−7 M was from 40% to 60% or the value of IC50 was from 50 nM to 200 nM.)

Question: For `CSc1cccc(NC(=S)NC[C@H]2CC[C@@H](Nc3nc(N(C)C)c4ccccc4n3)CC2)c1` [compound 681], which class is on record?
Answer: 3 (Class 3: The value of percent of control at 10^−7 M was more than 60% or the value of IC50 was more than 200 nM.)

Question: With `CN(C)c1nc(N[C@H]2CC[C@@H](CNC(=S)NCc3ccc(Cl)c(Cl)c3)CC2)nc2ccccc12` [compound 682] as the compound, how does the class read?
Answer: 3 (Class 3: The value of percent of control at 10^−7 M was more than 60% or the value of IC50 was more than 200 nM.)

Question: How did the class turn out when `COc1cc(NC(=S)NC[C@H]2CC[C@@H](Nc3nc(N(C)C)c4ccccc4n3)CC2)cc(OC)c1` [compound 683] was run?
Answer: 3 (Class 3: The value of percent of control at 10^−7 M was more than 60% or the value of IC50 was more than 200 nM.)

Question: `Cc1cc(C)cc(NC(=S)NC[C@H]2CC[C@@H](Nc3nc(N(C)C)c4ccccc4n3)CC2)c1` [compound 684] was tested. Which class did it give?
Answer: 3 (Class 3: The value of percent of control at 10^−7 M was more than 60% or the value of IC50 was more than 200 nM.)

Question: For `CN(C)c1nc(N[C@H]2CC[C@@H](CNC(=S)Nc3cccc(OCc4ccccc4)c3)CC2)nc2ccccc12` [compound 685], which class is on record?
Answer: 3 (Class 3: The value of percent of control at 10^−7 M was more than 60% or the value of IC50 was more than 200 nM.)

Question: How did the class turn out when `CN(C)c1nc(N[C@H]2CC[C@@H](CNC(=S)Nc3cccc(C(=O)O)c3)CC2)nc2ccccc12` [compound 686] was run?
Answer: 3 (Class 3: The value of percent of control at 10^−7 M was more than 60% or the value of IC50 was more than 200 nM.)

Question: For `Cc1ccc(NC(=S)NC[C@H]2CC[C@@H](Nc3nc(N(C)C)c4ccccc4n3)CC2)cc1Cl` [compound 687], which class is on record?
Answer: 3 (Class 3: The value of percent of control at 10^−7 M was more than 60% or the value of IC50 was more than 200 nM.)

Question: How did the class turn out when `COC(=O)c1cccc(NC(=S)NC[C@H]2CC[C@@H](Nc3nc(N(C)C)c4ccccc4n3)CC2)c1` [compound 688] was run?
Answer: 3 (Class 3: The value of percent of control at 10^−7 M was more than 60% or the value of IC50 was more than 200 nM.)

Question: `CN(C)c1nc(N[C@H]2CC[C@@H](CNC(=S)NCCCc3ccccc3)CC2)nc2ccccc12` [compound 689] was tested. Which class did it give?
Answer: 3 (Class 3: The value of percent of control at 10^−7 M was more than 60% or the value of IC50 was more than 200 nM.)

Question: For `CN(C)c1nc(N[C@H]2CC[C@@H](CNC(=S)Nc3ccc(OCc4ccccc4)cc3)CC2)nc2ccccc12` [compound 690], which class is on record?
Answer: 3 (Class 3: The value of percent of control at 10^−7 M was more than 60% or the value of IC50 was more than 200 nM.)

Question: `Cc1cc(Br)cc(C)c1NC(=S)NC[C@H]1CC[C@@H](Nc2nc(N(C)C)c3ccccc3n2)CC1` [compound 691, N-(4-bromo-2,6-dimethylphenyl)-N′-[(cis-4-{[4-(dimethylamino)quinazolin-2-yl]amino}cyclohexyl)methyl]thiourea] was tested. Which class did it give?
Answer: 1 (Class 1: The value of percent of control at 10^−7 M was less than 40% or the value of IC50 was less than 50 nM.)

Question: `Cc1cc(Br)ccc1NC(=S)NC[C@H]1CC[C@@H](Nc2nc(N(C)C)c3ccccc3n2)CC1` [compound 692] was tested. Which class did it give?
Answer: 3 (Class 3: The value of percent of control at 10^−7 M was more than 60% or the value of IC50 was more than 200 nM.)

Question: `CN(C)c1nc(N[C@H]2CC[C@@H](CNC(=S)Nc3ccc(Br)cc3C(F)(F)F)CC2)nc2ccccc12` [compound 693, N-[4-bromo-2-(trifluoromethyl)phenyl]-N′-[(cis-4-{[4-(dimethylamino)quinazolin-2-yl]amino}cyclohexyl)methyl]thiourea] was tested. Which class did it give?
Answer: 2 (Class 2: The value of percent of control at 10^−7 M was from 40% to 60% or the value of IC50 was from 50 nM to 200 nM.)

Question: `Cc1cc(Cl)ccc1NC(=S)NC[C@H]1CC[C@@H](Nc2nc(N(C)C)c3ccccc3n2)CC1` [compound 694] was tested. Which class did it give?
Answer: 3 (Class 3: The value of percent of control at 10^−7 M was more than 60% or the value of IC50 was more than 200 nM.)

Question: With `CN(C)c1nc(N[C@H]2CC[C@@H](CNC(=S)NCc3ccc(Cl)cc3)CC2)nc2ccccc12` [compound 695] as the compound, how does the class read?
Answer: 3 (Class 3: The value of percent of control at 10^−7 M was more than 60% or the value of IC50 was more than 200 nM.)

Question: With `CCOC(=O)c1ccc(NC(=S)NC[C@H]2CC[C@@H](Nc3nc(N(C)C)c4ccccc4n3)CC2)cc1` [compound 696] as the compound, how does the class read?
Answer: 3 (Class 3: The value of percent of control at 10^−7 M was more than 60% or the value of IC50 was more than 200 nM.)

Question: Which class does the source give for `CN(C)c1nc(N[C@H]2CC[C@@H](CNC(=S)NCc3ccc(F)cc3)CC2)nc2ccccc12` [compound 698] here?
Answer: 3 (Class 3: The value of percent of control at 10^−7 M was more than 60% or the value of IC50 was more than 200 nM.)

Question: `CC(C)c1ccc(NC(=S)NC[C@H]2CC[C@@H](Nc3nc(N(C)C)c4ccccc4n3)CC2)cc1` [compound 699] was tested. Which class did it give?
Answer: 3 (Class 3: The value of percent of control at 10^−7 M was more than 60% or the value of IC50 was more than 200 nM.)

Question: For `COc1ccc(NC(=S)NC[C@H]2CC[C@@H](Nc3nc(N(C)C)c4ccccc4n3)CC2)c([N+](=O)[O-])c1` [compound 700], which class is on record?
Answer: 3 (Class 3: The value of percent of control at 10^−7 M was more than 60% or the value of IC50 was more than 200 nM.)

Question: With `COc1ccc(CNC(=S)NC[C@H]2CC[C@@H](Nc3nc(N(C)C)c4ccccc4n3)CC2)cc1` [compound 701] as the compound, how does the class read?
Answer: 3 (Class 3: The value of percent of control at 10^−7 M was more than 60% or the value of IC50 was more than 200 nM.)

Question: Which class does the source give for `COC(=O)c1ccc(NC(=S)NC[C@H]2CC[C@@H](Nc3nc(N(C)C)c4ccccc4n3)CC2)cc1` [compound 702] here?
Answer: 3 (Class 3: The value of percent of control at 10^−7 M was more than 60% or the value of IC50 was more than 200 nM.)

Question: With `Cc1ccc(NC(=S)NC[C@H]2CC[C@@H](Nc3nc(N(C)C)c4ccccc4n3)CC2)c([N+](=O)[O-])c1` [compound 703] as the compound, how does the class read?
Answer: 3 (Class 3: The value of percent of control at 10^−7 M was more than 60% or the value of IC50 was more than 200 nM.)

Question: Which class does the source give for `Cc1ccc(CNC(=S)NC[C@H]2CC[C@@H](Nc3nc(N(C)C)c4ccccc4n3)CC2)cc1` [compound 704] here?
Answer: 3 (Class 3: The value of percent of control at 10^−7 M was more than 60% or the value of IC50 was more than 200 nM.)

Question: `CCCCc1ccc(NC(=S)NC[C@H]2CC[C@@H](Nc3nc(N(C)C)c4ccccc4n3)CC2)cc1` [compound 705] was tested. Which class did it give?
Answer: 3 (Class 3: The value of percent of control at 10^−7 M was more than 60% or the value of IC50 was more than 200 nM.)

Question: Which class does the source give for `COc1ccc(Cl)cc1NC(=S)NC[C@H]1CC[C@@H](Nc2nc(N(C)C)c3ccccc3n2)CC1` [compound 706] here?
Answer: 2 (Class 2: The value of percent of control at 10^−7 M was from 40% to 60% or the value of IC50 was from 50 nM to 200 nM.)

Question: `CN(C)c1nc(N[C@H]2CC[C@@H](CNC(=S)NC(c3ccccc3)c3ccccc3)CC2)nc2ccccc12` [compound 708, N-[(cis-4-{[4-(dimethylamino)quinazolin-2-yl]amino}cyclohexyl)methyl]-N′-(diphenylmethyl)thiourea] was tested. Which class did it give?
Answer: 2 (Class 2: The value of percent of control at 10^−7 M was from 40% to 60% or the value of IC50 was from 50 nM to 200 nM.)

Question: With `CN(C)c1nc(N[C@H]2CC[C@@H](CNC(=S)NC3CCCCCCCCCCC3)CC2)nc2ccccc12` [compound 709, N-cyclododecyl-N′-[(cis-4-{[4-(dimethylamino)quinazolin-2-yl]amino}cyclohexyl)methyl]thiourea] as the compound, how does the class read?
Answer: 2 (Class 2: The value of percent of control at 10^−7 M was from 40% to 60% or the value of IC50 was from 50 nM to 200 nM.)

Question: Which class does the source give for `CN(C)c1nc(N[C@H]2CC[C@@H](CNC(=S)NCC3CCCCC3)CC2)nc2ccccc12` [compound 710, N-(cyclohexylmethyl)-N′-[(cis-4-{[4-(dimethylamino)quinazolin-2-yl]amino}cyclohexyl)methyl]thiourea] here?
Answer: 2 (Class 2: The value of percent of control at 10^−7 M was from 40% to 60% or the value of IC50 was from 50 nM to 200 nM.)

Question: `CN(C)c1nc(N[C@H]2CC[C@@H](CNC(=S)NC3CCCCCCC3)CC2)nc2ccccc12` [compound 711] was tested. Which class did it give?
Answer: 3 (Class 3: The value of percent of control at 10^−7 M was more than 60% or the value of IC50 was more than 200 nM.)

Question: How did the class turn out when `CN(C)c1nc(N[C@H]2CC[C@@H](CNC(=S)NC3CC3)CC2)nc2ccccc12` [compound 712] was run?
Answer: 3 (Class 3: The value of percent of control at 10^−7 M was more than 60% or the value of IC50 was more than 200 nM.)

Question: With `CN(C)c1nc(N[C@H]2CC[C@@H](CNC(=S)NCc3cccc4ccccc34)CC2)nc2ccccc12` [compound 713] as the compound, how does the class read?
Answer: 3 (Class 3: The value of percent of control at 10^−7 M was more than 60% or the value of IC50 was more than 200 nM.)

Question: How did the class turn out when `CN(C)c1nc(N[C@H]2CC[C@@H](CNC(=S)NCC(c3ccccc3)c3ccccc3)CC2)nc2ccccc12` [compound 714] was run?
Answer: 3 (Class 3: The value of percent of control at 10^−7 M was more than 60% or the value of IC50 was more than 200 nM.)

Question: For `CN(C)c1nc(N[C@H]2CC[C@@H](CNC(=S)Nc3c(Cl)c(Cl)cc(Cl)c3Cl)CC2)nc2ccccc12` [compound 715], which class is on record?
Answer: 1 (Class 1: The value of percent of control at 10^−7 M was less than 40% or the value of IC50 was less than 50 nM.)

Question: `COc1cccc(CNC(=S)NC[C@H]2CC[C@@H](Nc3nc(N(C)C)c4ccccc4n3)CC2)c1OC` [compound 716] was tested. Which class did it give?
Answer: 2 (Class 2: The value of percent of control at 10^−7 M was from 40% to 60% or the value of IC50 was from 50 nM to 200 nM.)

Question: How did the class turn out when `Cc1cc(C)c(NC(=S)NC[C@H]2CC[C@@H](Nc3nc(N(C)C)c4ccccc4n3)CC2)cc1C` [compound 717] was run?
Answer: 3 (Class 3: The value of percent of control at 10^−7 M was more than 60% or the value of IC50 was more than 200 nM.)

Question: For `CN(C)c1nc(N[C@H]2CC[C@@H](CNC(=S)NCc3ccc(Cl)cc3Cl)CC2)nc2ccccc12` [compound 718], which class is on record?
Answer: 2 (Class 2: The value of percent of control at 10^−7 M was from 40% to 60% or the value of IC50 was from 50 nM to 200 nM.)
